Reference: patent US11207301B2, “Sphingosine 1 phosphate receptor agonists for neuroprotection” (RECEPTOS LLC, priority 2017, dated 2021)

Assays:
[1] = biological target: T1, Recombinant human MAO-A (Homo sapiens, UniProt P21397); assay: MAO-A inhibition, conversion of kynuramine to 4-hydroxyquinoline; format: biochemical
T1 construct: purchased Sigma-Aldrich M7316; host or cells: baculovirus infected insect cells
T1 sequence (P21397 1-527): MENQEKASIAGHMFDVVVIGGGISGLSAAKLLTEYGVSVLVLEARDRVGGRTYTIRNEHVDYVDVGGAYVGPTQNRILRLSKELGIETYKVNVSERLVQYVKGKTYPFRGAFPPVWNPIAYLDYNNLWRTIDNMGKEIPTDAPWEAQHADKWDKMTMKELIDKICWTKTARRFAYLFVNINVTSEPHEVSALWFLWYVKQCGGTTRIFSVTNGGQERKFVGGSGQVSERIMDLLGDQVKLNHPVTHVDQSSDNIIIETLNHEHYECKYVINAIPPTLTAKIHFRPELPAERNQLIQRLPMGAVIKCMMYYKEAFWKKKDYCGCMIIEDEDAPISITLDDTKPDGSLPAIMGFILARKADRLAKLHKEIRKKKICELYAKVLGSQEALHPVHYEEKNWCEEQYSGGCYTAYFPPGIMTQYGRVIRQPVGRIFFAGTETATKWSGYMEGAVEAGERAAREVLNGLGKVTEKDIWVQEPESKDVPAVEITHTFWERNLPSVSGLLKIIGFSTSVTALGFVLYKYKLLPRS
Description: (§1) The effect of a S1P receptoragonist on MAO-B activity can be assessed by measuring the inhibition of conversion of substrate kynuramine to 4-hydroxyquinoline as described in Example 4.
(§2) Compound 1 and Compound 2-S were evaluated for their ability to inhibit MAO-A and MAO-B. Inhibition of the conversion of kynuramine, a substrate for MAO-A and MAO-B, to 4-hydroxyquinoline was used to assess the inhibitory potential of Compound 1 and Compound 2-S. Recombinant human MAO-A (product number M7316) and MAO-B (product number M7441) expressed in baculovirus infected insect cells were obtained from Sigma-Aldrich, Saint Louis, Mo. USA were used as a source of purified MAOs.
Recombinant MAO-A (0.01 mg/mL, final concentrations) and MAO-B (0.02 mg/mL, final concentration) were diluted to desired concentrations in 100 mM potassium phosphate buffer (pH 7.4) containing 5 mM MgCl2. The diluted protein fractions were preincubated with various concentrations of each test compound at 37° C. for 2 min. The concentrations used were 100, 33, 10, 3.3, 1.0, 0.33 μM and acetonitrile/DMSO as vehicle control for MAO-A and 1.0, 0.3, 0.1, 0.03, 0.01, 0.003 μM and acetonitrile/DMSO as vehicle control for MAO-B. The reaction was started by addition of kynuramine to the incubation mixture. The final concentration of kynuramine was 40 μM for MAO-A and 25 μM for MAO-B. The total incubation volume was 0.250 mL. […] The reaction product, 4-hydroxyquinoline was analyzed by LC-MS/MS as described below. […]
(§3) The gradient system was used to separate the analytes with a flow rate of 0.5 ml/min using mobile phase A, water containing 0.1% formic acid and mobile phase B, acetonitrile containing 0.1% formic acid. […] The analytes were monitored using multiple reaction monitoring and the ion transitions (Q1/Q3) were as follows: 4-hydroxyquinoline 146/104 (collision energy, CE was 27; declustering potential, DP, 50, and IS (acetaminophen), 152/110 (collision energy, CE was 27; declustering potential, DP, 50). All data were analyzed using AB Sciex Analyst v1.6.2 software.

[2] = system: cuprizone-induced mouse model of demyelination; assay: Cuprizone-induced mouse model of demyelination / neuroprotection; format: in vivo, C57BL/6 mice; conditions: 1 mg/kg; vehicle 258±49.1, p<0.001
From the text: The effect of a S1P receptor agonist on spinal cord axial demyelination or reduction in axonal breaks can be assessed by measuring concentration of neurofilament light chain (NfL) in the plasma. NfL is released to the plasma following axonal injury and degeneration. Histological examination of axons with antineurofilament H non-phosphorylated mouse antibody SMI-32 can also be used to assess axonal demyelination or breaks. NfH is phosphorylated in healthy axons and unphosphorylated in damaged axons. In addition, the effects of ozanimod on the CNS were examined in vivo using the cuprizone-induced mouse model of demyelination and in vitro in primary rodent astrocytes. Efficacy of ozanimod or compound (2-R) was examined in the cuprizone-induced mouse model of neuroprotection. C57BL/6 mice were treated with cuprizone (0.3% weight/weight orally) and rapamycin (10 mg/kg intraperitoneally daily) to demyelinate axons in the brain and concurrently treated with ozanimod (0.1, 0.3, or 1 mg/kg) or compound (2-S) (1 mg/kg) by daily oral gavage to investigate its neuroprotective activity. Neuroprotection was assessed through examination of axonal pathology in the corpus callosum using SMI-32 (antineurofilament H non-phosphorylated mouse monoclonal antibody) staining, functional assessment through kinematic gait analysis and the plasma biomarker neurofilament light chain (NfL). Further, direct activity of ozanimod was examined in resting and activated primary rodent astrocytes in vitro.

[3] = biological target: T2, Recombinant human MAO-B (Homo sapiens, UniProt P27338); assay: MAO-B inhibition, conversion of kynuramine to 4-hydroxyquinoline; format: biochemical
T2 construct: purchased Sigma-Aldrich M7441; host or cells: baculovirus infected insect cells
T2 sequence (P27338 1-520): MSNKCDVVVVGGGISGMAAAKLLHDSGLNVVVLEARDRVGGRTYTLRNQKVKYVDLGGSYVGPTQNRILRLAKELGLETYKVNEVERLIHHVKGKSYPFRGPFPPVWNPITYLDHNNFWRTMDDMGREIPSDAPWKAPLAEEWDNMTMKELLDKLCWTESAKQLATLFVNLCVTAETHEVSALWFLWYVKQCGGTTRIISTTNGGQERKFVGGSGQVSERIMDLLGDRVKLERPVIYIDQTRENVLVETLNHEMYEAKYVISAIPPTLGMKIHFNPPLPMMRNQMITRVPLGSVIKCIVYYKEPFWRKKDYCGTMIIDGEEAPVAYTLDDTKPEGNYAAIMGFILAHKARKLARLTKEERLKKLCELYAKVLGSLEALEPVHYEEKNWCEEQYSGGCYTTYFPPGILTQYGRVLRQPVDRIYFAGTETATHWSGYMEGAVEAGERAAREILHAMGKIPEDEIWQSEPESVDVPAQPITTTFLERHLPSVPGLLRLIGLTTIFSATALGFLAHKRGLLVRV
Description: as §1, §2
Recombinant MAO-A (0.01 mg/mL, final concentrations) and MAO-B (0.02 mg/mL, final concentration) were diluted to desired concentrations in 100 mM potassium phosphate buffer (pH 7.4) containing 5 mM MgCl2. The diluted protein fractions were preincubated with various concentrations of each test compound at 37° C. for 2 min. The concentrations used were 100, 33, 10, 3.3, 1.0, 0.33 μM and acetonitrile/DMSO as vehicle control for MAO-A and 1.0, 0.3, 0.1, 0.03, 0.01, 0.003 μM and acetonitrile/DMSO as vehicle control for MAO-B. The reaction was started by addition of kynuramine to the incubation mixture. The final concentration of kynuramine was 40 μM for MAO-A and 25 μM for MAO-B. The total incubation volume was 0.250 mL. This concentration was selected to be close to the Km values of MAO-A (Km 42 μM) and MAO-B (Km 26 μM). After 10 min of incubation, aliquots (100 μL) of the reaction mixture were taken and added to 200 μL acetonitrile containing 0.5 μM IS (acetaminophen). The reaction product, 4-hydroxyquinoline was analyzed by LC-MS/MS as described below.
MS characterization and detection of kynuramine and 4-hydroxyquinoline was performed using ABI 4000 Sciex QTrap mass spectrometer utilizing a Turbo Spray. The mass spectrometer was controlled by Analyst v1.6.2. The ESI was operated in a positive ion mode and the experimental parameters were set as follows: ion spray voltage, 2000; source temperature, 550° C.; curtain gas, 20; collision gas, medium ion source gas 1, 55; ion source gas 2, 50. […]
as §3

IC50 ([1]; kynuramine 40 μM, 10 min incubation): 1200 nM
MAO-A inhibition (in words) ([1]; tested up to 100 μM): inhibitory activity
MAO-B inhibition (in words) [3]: inhibitory activity
IC50 ([3]; kynuramine 25 μM, 10 min incubation): 32 nM
SMILES: CC(C)Oc1ccc(-c2nc(-c3cccc4c3CC[C@@H]4N)no2)cc1C#N [Compound 2-S]
plasma biomarker NfL [2]: 127 ± 12.2 pg/mL
